Holding throughout (format): cell-based
For assay [1], the system named is skin sections of a hairless mouse.
For assay [2] the test system is unchanged. The assay can be described thus: Skin surface potential difference relative to culture solution, capsaicin coated on the skin surface. As to conditions: FIG. 6. The source says:
In a second method, upon measuring the skin surface condition of the first method, stimulation is imparted further to the skin model comprising a skin section and a culture solution to measure aforementioned potential difference. This potential difference changes as stimulation is imparted. This change means that a stream of ions has occurred in the epidermis. The direction of a stream of ions differs depending on stimulation. When there is a change compared to the value of untreated skin, it is interpreted that stimulation producing mobility of ions is imparted to the epidermis. The degree of skin stimulation is measured from the changed value. Upon imparting stimulation, the place of stimulation may be on skin surface or culture solution. In the case of skin surface, examples of methods for imparting stimulation include coating skin with a stimulating substance and physical stimulation. Also, in the case of culture solution, the method used is addition of stimulating substances. Examples of these stimulating substances include neuropeptide, histamine, surfactant, organic acid, and capsaicin. […] In addition, examples of said physical stimulation include barrier destruction by a cellophane adhesive tape and the like.

The test system is the same in assay [3]. The assay can be described thus: Skin surface potential difference relative to culture solution, substance P (SP) stimulation. As to conditions: FIG. 3.

Like-named read-outs stand apart in the source and are kept apart here. No end group written: not given here.

The source of these data is US20040106877A1, “Method and device for determining state of skin surface” (priority 2000, published 2004).

Turning to `Nc1ccncc1` [AP, aminopyridine], the “inhibition of the tape-stripping-induced change in potential difference” value in assay [1] (drug added to culture solution after tape stripping, average of five measurements, FIG. 4, FIG. 5) was “reduces the change in potential difference”.
Turning to `NC1=N[C@H](O)[C@H]2[C@H]3O[C@]4(O)O[C@@H]([C@@H](O)[C@@]2(N1)[C@@H]4O)[C@]3(O)CO` [TTX, tetrodotoxin], the “inhibition of the tape-stripping-induced change in potential difference” value in assay [1] was “does not inhibit the change in a potential difference”.
Turning to `COc1cc(CNC(=O)CCCC/C=C/C(C)C)ccc1O` [capsaicin], the “time of maximum change in potential difference after coating” value in assay [2] (capsaicin coated on skin surface) is 0.5 h. The “change in potential difference of the skin surface relative to culture solution after stimulating substance” value in assay [2] (capsaicin coated on skin surface, compared with non-treated skin surface (control), average of five measurements) is listed as “a rapid change in potential difference”.
`Oc1cc2c(cc1O)CN(C(=S)NCCc1ccc(Cl)cc1)CCC2` [capsazepine]: the “inhibition of the capsaicin-induced change in potential difference” value in assay [2] (drug coated on skin surface after capsaicin) is recorded as “the range of change in potential difference is reduced”.
With “[D-Arg1, D-Trp7, 9, Leu11]-SubstanceP [SP antagonist]”, in assay [3] (drug added to culture solution before adding SP, observed for 2 hours), the “inhibition of the SP-induced change in potential difference” value was “no rapid and significant change in potential difference is produced”.
As for “substance P (RPKPQQFFGLM; ends and bridges not checked; UniProt P20366 58-68, looked up) [SP, neuropeptide used as a stimulating substance]”, in assay [3] (SP added to culture solution), the “time after addition when the potential difference returns to a value close to control” value was 2 h and the “time of peak of the potential difference change after addition” value is 1 h. Further, the “change in potential difference of the skin surface relative to culture solution after stimulating substance” value in assay [3] (SP added to culture solution, compared with non-treated skin surface (control), average of five measurements) is recorded as “a rapid change in a potential difference is produced”.
